According to ChEMBL document CHEMBL4043221, “Natural neuro-inflammatory inhibitors from Caragana turfanensis” (Bioorg Med Chem Lett, 2017):

Experiments:
BV-2 [1] = test: Antineuroinflammatory activity in mouse BV2 cells assessed as inhibition of LPS-induced NO production after 24 hrs in presence of LPS by Griess reaction based assay; format: functional, cell-based; settings: BV-2, 24 h
BV-2 [2] = test: Cytotoxicity against mouse BV2 cells assessed as reduction in cell viability at 1 to 100 uM after 24 hrs in presence of LPS by MTT assay; format: cell-based; settings: bv-2, 24 h

SMILES	IC50 (BV-2 [1])	Activity (BV-2 [2])
CC[C@H](CC[C@@H](C)[C@H]1CC[C@H]2[C@@H]3C(=O)C=C4C[C@@H](O)CC[C@]4(C)[C@H]3CC[C@]12C)C(C)C	> 100 µM	
COc1cc([C@@H]2OC[C@@H]3[C@H]2CO[C@H]3c2cc(OC)c(O)c(OC)c2)cc(OC)c1O	> 100 µM	
CCCCCCCCCCCCCCCCCCCCCCCCOC(=O)/C=C/c1ccc(O)c(OC)c1	> 100 µM	
COc1cc([C@H]2OC[C@H]3[C@@H]2CO[C@H]3c2cc(OC)c(O)c(OC)c2)cc(OC)c1O	> 100 µM	
C[N+](C)(C)C(Cc1c[nH]c2ccccc12)C(=O)[O-] (centres undefined)	> 100 µM	
CCCCCCCCCCCCCCCCCCOC(=O)/C=C/c1ccc(O)c(O)c1	> 100 µM	
O=C(O)/C=C/c1ccccc1 [CINNAMIC ACID]	> 100 µM	
O=C(O)/C=C/c1ccc(O)cc1 [COUMARIC ACID]	> 100 µM	
CCCCCCCCCCCCCCCCCCCCCCCCCC(=O)O [HEXACOSANOIC ACID]	> 100 µM	
COc1cc([C@H]2OC[C@H]3[C@@H]2CO[C@@H]3c2cc(OC)c(O[C@@H]3O[C@H](CO)[C@@H](O)[C@H](O)[C@H]3O)c(OC)c2)cc(OC)c1O[C@@H]1O[C@H](CO)[C@@H](O)[C@H](O)[C@H]1O [LIRIODENDRIN]	> 100 µM	
C=C(C)[C@@H]1CC[C@]2(C)CC[C@]3(C)[C@H](CC[C@@H]4[C@@]5(C)CC[C@H](O)C(C)(C)[C@@H]5CC[C@]43C)[C@@H]12 [LUPEOL]	> 100 µM	
CN(C)c1ccc(O)c2c1C[C@H]1C[C@H]3[C@H](N(C)C)C(O)=C(C(N)=O)C(=O)[C@@]3(O)C(O)=C1C2=O [MINOCYCLINE]	9.07 µM	
O=C(O)/C=C/c1ccccc1O [O-COUMARIC ACID]	> 100 µM	
O=C(O)c1ccc(O)cc1 [PARABEN]	> 100 µM	
O=Cc1ccc(O)c(O)c1 [PROTOCATECHUALDEHYDE]	> 100 µM	

Continued, in another order:

IC50 (BV-2 [1])	SMILES	Activity (BV-2 [2])
> 100 µM	O=c1c(-c2ccc(O)c(O)c2)coc2cc(O)ccc12	
76.2 µM	COc1cc([C@H]2OC[C@H]3[C@@H]2CO[C@@H]3c2ccc(O)c(OC)c2)ccc1O	Non-Toxic
6.87 µM	COc1ccc(-c2coc3c(O)c(O)ccc3c2=O)cc1O	Non-Toxic
> 100 µM	COc1cc([C@H]2OC[C@@H]3[C@H]2CO[C@@H]3c2cc(OC)c(O)c(OC)c2)ccc1O	
> 100 µM	O=C1CC(c2cc(O)cc(O)c2)Oc2cc(O[C@@H]3O[C@H](CO)[C@@H](O)[C@H](O)[C@H]3O)cc(O)c21 (some centres undefined)	
> 100 µM	Oc1cc(O)c2c(c1)C1C(c3cc(O)cc(O)c3[C@H]1c1ccc(O)c(O)c1)[C@@H]2c1ccc(O)c(O)c1 (some centres undefined)	
1.01 µM	COc1cc(O)c(-c2cc3ccc(O)cc3oc2=O)cc1OC	Non-Toxic
72.6 µM	O=C(C[C@@H](O)c1ccc(O)c(O)c1)c1ccc(O)cc1O	Non-Toxic
> 100 µM	COc1ccc2c(c1)O[C@H](c1ccc(O)c(O)c1)CC2=O	
> 100 µM	O=C1c2ccc(O)cc2O[C@@H](c2ccc(O)c(O)c2)[C@@H]1O	
39.6 µM	COc1ccc(-c2coc3cc(O)ccc3c2=O)cc1O [CALYCOSIN]	Non-Toxic
73 µM	O=c1c(O)c(-c2ccc(O)c(O)c2)oc2cc(O)ccc12 [FISETIN]	Non-Toxic
13.2 µM	COc1ccc(-c2coc3cc(O)ccc3c2=O)cc1 [FORMONONETIN]	Non-Toxic
> 100 µM	O=C(/C=C/c1ccc(O)cc1)c1ccc(O)cc1O [ISOLIQUIRITIGENIN]	
18.5 µM	COc1ccc(-c2coc3cc(O)c(OC)cc3c2=O)cc1O [ODORATIN]	Non-Toxic
80.5 µM	Oc1cc(O)cc(/C=C/c2ccc(O)c(O)c2)c1 [PICEATANNOL]	Non-Toxic
> 100 µM	COc1ccc(-c2coc3cc(O)cc(O)c3c2=O)cc1O [PRATENSEIN]	
> 100 µM	O=C(O)c1ccc(O)c(O)c1 [PROTOCATECHUIC ACID]	
18.7 µM	Oc1ccc(/C=C/c2cc(O)cc(O)c2)cc1 [RESVERATROL]	Non-Toxic
